The values below come from patent publication US8772480B2, “Inhibitors of PI3 kinase and/or mTOR” (priority 2009, dated 2014).

pIC50: −log10 of the molar value.

The first test deals with phosphorylation of Akt at Serine 473 in U87 MG cells. Nature of the test: cells. Particulars: Homo sapiens, U-87 MG, 2 h, read-out: U87Cell IC50.
Experimental: pAkt Aplhascreen (U87 Cell)
This assay was performed using U87 MG cells. […] The cells were maintained weekly using 0.05% Trypsin (Gibco) and replated in 150 mm TC—Treated Culture Dishes (Corning, Corning, N.Y.).
The first day of the assay, the adherent cells were trypsinized, media was added to the loose cells and cells were mixed to a homogenous mixture. 0.5 ml of the homogenous mixture was counted on the Beckman Coulter® Vi-CELL™ XR (Fullerton, Calif.). 50 frames of cells were counted and the number of viable cells was determined. The cells were then diluted to 0.25 million cells per ml, and centrifuged at 200 rcf for 5 minutes. The media was removed and the cells were reconstituted in fresh media for plating. The cells were plated at 20 μl per well on the PerkinElmer® FlexDrop PLUS in Low Volume 384 Well White Tissue Culture Plates (Corning) with a final cell density of 5K cells per well. The plates were incubated overnight at 37° Celsius, 5% CO2.
After two hours, the media in the cell plates was aspirated using the BioTek® ELx405HT plate washer (Winooski, Vt.) removing the majority of media and compound without disturbing the adherent U87 cells. […] The plates were then incubated at room temperature on a shaker for ten minutes. […] The AlphaScreen® reaction was added to the cell lysate at 6 μl per well using the PerkinElmer® FlexDrop PLUS. The plates were placed in a humid environment to reduce edge effects and incubated overnight at room temperature with restricted air flow in the dark.
Usually pIC50 stands for −log10 of the IC50, conventionally taken in molar units. With `COc1ccc(NCc2cnc(Nc3ccc(OC)nc3)c(-c3nc(C)nc4[nH]cnc34)c2)cc1` [Example 77, 5-((4-methoxyphenylamino)methyl)-N-(6-methoxypyridin-3-yl)-3-(2-methyl-9H-purin-6-yl)pyridin-2-amine], the pIC50 is 6.78.
The same measure, in the same setting: to `Cc1nc(N)nc(-c2cccnc2Nc2cnc(Cl)c(N)c2)n1` [Example 265, N5-(3-(4-Amino-6-Methyl-1,3,5-Triazin-2-yl)Pyridin-2-yl)-2-Chloropyridine-3,5-Diamine] belongs 6.46; to `Cc1nc(N)nc(-c2cccnc2Nc2cnc(Cl)c(NS(=O)(=O)N3CCOCC3)c2)n1` [Example 366, N-(5-(3-(4-Amino-6-Methyl-1,3,5-Triazin-2-yl)Pyridin-2-Ylamino)-2-Chloropyridin-3-yl)Morpholine-4-Sulfonamide], 7.40; to `Cc1nc(N)nc(-c2cccnc2Nc2cnc(Cl)c(NS(=O)(=O)N(C)C(C)C)c2)n1` [Example 367, N-(5-(3-(4-Amino-6-Methyl-1,3,5-Triazin-2-yl)Pyridin-2-Ylamino)-2-Chloropyridin-3-yl)-N-Isopropyl-N-Methylaminosulfamide], 6.61.

Still in this test, the particulars now being: Homo sapiens, U-87 MG, 2 h, read-out: U87Cell IC50, pAkt (Ser 473), U87 MG cells, two hours with compound.
On to `CCOc1ccc(Nc2ncccc2-c2nc(C)nc(N)n2)cn1` [Example 49, 4-(2-(6-ethoxypyridin-3-ylamino)pyridin-3-yl)-6-methyl-1,3,5-triazin-2-amine], for which the pIC50 was 5.94.
For `COc1cccc(NCc2cnc(Nc3ccc(OC)nc3)c(-c3nc(C)nc4[nH]cnc34)c2)c1` [Example 78, 5-((3-methoxyphenylamino)methyl)-N-(6-methoxypyridin-3-yl)-3-(2-methyl-9H-purin-6-yl)pyridin-2-amine], the pIC50 is 6.32.
The same measure, in the same setting: the same measure for `COc1ccc(Nc2ncc(CNc3cccnc3)cc2-c2nc(C)nc3[nH]cnc23)cn1` [Example 79, N-(6-methoxypyridin-3-yl)-3-(2-methyl-9H-purin-6-yl)-5-((pyridin-3-ylamino)methyl)pyridin-2-amine]: 7.14; for `COc1cccc(Nc2cnc(Nc3ccc(OC)nc3)c(-c3nc(C)nc4[nH]cnc34)c2)c1` [Example 96, N5-(3-methoxyphenyl)-N2-(6-methoxypyridin-3-yl)-3-(2-methyl-9H-purin-6-yl)pyridine-2,5-diamine]: 6.39; for `CC(=O)Nc1ccc(Nc2ncccc2-c2nc(C)nc3[nH]cnc23)cc1` [Example 102, N-(4-(3-(2-methyl-9H-purin-6-yl)pyridin-2-ylamino)phenyl)acetamide]: 7.06.
The same measure, in the same setting: the same measure for `Cc1nc(-c2cc(Cc3ccc(S(C)(=O)=O)cc3)cnc2Nc2cccc3[nH]ncc23)c2nc[nH]c2n1` [Example 104, N-(3-(2-methyl-9H-purin-6-yl)-5-(4-(methylsulfonyl)benzyl)pyridin-2-yl)-1H-indazol-4-amine]: 6.89; for `CC(=O)Nc1ccc(Nc2ncc(Cc3ccc(S(C)(=O)=O)cc3)cc2-c2nc(C)nc3[nH]cnc23)cn1` [Example 105, N-(5-(3-(2-methyl-9H-purin-6-yl)-5-(4-(methylsulfonyl)benzyl)pyridin-2-ylamino)pyridin-2-yl)acetamide]: 6.80; for `CC(=O)Nc1cc(-c2cnccc2Nc2cccc3[nH]ccc23)nc(C)n1` [Example 108, N-(6-(4-(1H-indol-4-ylamino)pyridin-3-yl)-2-methylpyrimidin-4-yl)acetamide]: 5.92.
Consider `COc1ccc(Nc2nc(-c3ccncc3)ncc2-c2nc(C)nc(N)n2)cn1` [Example 124, 4-(4-(6-methoxypyridin-3-ylamino)-2-(pyridin-4-yl)pyrimidin-5-yl)-6-methyl-1,3,5-triazin-2-amine], for which the pIC50 was under 5.00.
Take `COc1ccc(Nc2nc(NC3CCCC3)ncc2-c2nc(C)nc(N)n2)cn1` [Example 126, 5-(4-amino-6-methyl-1,3,5-triazin-2-yl)-N2-cyclopentyl-N4-(6-methoxypyridin-3-yl)pyrimidine-2,4-diamine]: the pIC50 is 6.62.
`COc1ccc(Nc2ncc(Cl)cc2-c2nc(C)nc3[nH]cnc23)cn1` [Example 127, 5-chloro-N-(6-methoxypyridin-3-yl)-3-(2-methyl-9H-purin-6-yl)pyridin-2-amine]: the pIC50 is 6.60.
Same read-out and setting: to `COc1ncc(Nc2ncc(C(C)N3CCN(S(C)(=O)=O)CC3)cc2-c2nc(C)nc(N)n2)cc1F` (stereo not drawn) [Example 143, 4-(2-(5-fluoro-6-methoxypyridin-3-ylamino)-5-(1-(4-(methylsulfonyl)piperazin-1-yl)ethyl)pyridin-3-yl)-6-methyl-1,3,5-triazin-2-amine] belongs 8.22; to `COc1ncc(Nc2ncc([C@@H](C)N3CCN(S(C)(=O)=O)CC3)cc2-c2nc(C)nc(N)n2)cc1F` [Example 148, (R)-4-(2-(5-Fluoro-6-Methoxypyridin-3-Ylamino)-5-(1-(4-(Methylsulfonyl)Piperazin-1-yl)Ethyl)Pyridin-3-yl)-6-Methyl-1,3,5-Triazin-2-Amine], 8.30.
The same measure, in the same setting: to `COc1ncc(Nc2ncc(C(=O)N3CCN(S(C)(=O)=O)CC3)cc2-c2nc(C)nc(N)n2)cc1F` [Example 152, 4-(2-((5-Fluoro-6-Methoxy-3-Pyridinyl)Amino)-5-((4-(Methylsulfonyl)-1-Piperazinyl)Carbonyl)-3-Pyridinyl)-6-Methyl-1,3,5-Triazin-2-Amine] belongs 7.43.
Still for that read-out and setting: to `Cc1nc(N)nc(-c2cccnc2Nc2ccc3oc(C)nc3c2)n1` [Example 165, N-(3-(4-Amino-6-Methyl-1,3,5-Triazin-2-yl)Pyridin-2-yl)-2-Methylbenzo[D]Oxazol-5-Amine] belongs 5.59.
As to `COc1cc(Nc2ncccc2-c2nc(C)nc(N)n2)ccc1F` [Example 167, 4-(2-(4-Fluoro-3-Methoxyphenylamino)Pyridin-3-yl)-6-Methyl-1,3,5-Triazin-2-Amine], the pIC50 was 5.93.
As to `Cc1nc(-c2cccnc2Nc2ccc(NC(=O)C3CC3)cc2)c2nc[nH]c2n1` [Example 182, N-(4-(3-(2-Methyl-9H-Purin-6-yl)Pyridin-2-Ylamino)Phenyl)Cyclopropanecarboxamide], the pIC50 was 7.04.
On the same count and under the same terms, the same measure for `COc1ncc(Nc2ncc(F)cc2-c2nc(C)nc(N)n2)cc1F` [Example 185, 4-(5-Fluoro-2-(5-Fluoro-6-Methoxypyridin-3-Ylamino)Pyridin-3-yl)-6-Methyl-1,3,5-Triazin-2-Amine]: 6.70.
Same read-out and setting: the same measure for `Cc1nc(N)nc(-c2cccnc2Nc2ccc(NC(=O)Nc3ccccc3)nc2)n1` [Example 190, 1-(5-(3-(4-Amino-6-Methyl-1,3,5-Triazin-2-yl)Pyridin-2-Ylamino)Pyridin-2-yl)-3-Phenylurea]: 6.05; for `Cc1nc(N)nc(-c2cccnc2Nc2ccc(NC(=O)Nc3cccc(F)c3)nc2)n1` [Example 191, 1-(5-(3-(4-Amino-6-Methyl-1,3,5-Triazin-2-yl)Pyridin-2-Ylamino)Pyridin-2-yl)-3-(3-Fluorophenyl)Urea]: 5.67.
Still for that read-out and setting: to `CC(=O)Nc1ccc(Nc2ncc(Cl)cc2-c2nc(C)nc(N)n2)cn1` [Example 193, N-(5-(3-(4-Amino-6-Methyl-1,3,5-Triazin-2-yl)-5-Chloropyridin-2-Ylamino)Pyridin-2-yl)Acetamide] belongs 7.00.
Regarding `COC(=O)Nc1ccc(Nc2ncc(Cl)cc2-c2nc(C)nc(N)n2)cn1` [Example 194, Methyl 5-(3-(4-Amino-6-Methyl-1,3,5-Triazin-2-yl)-5-Chloropyridin-2-Ylamino)Pyridin-2-Ylcarbamate], the pIC50 is under 5.00.
The same measure, in the same setting: the same measure for `Cc1nc(N)nc(-c2cc(CN3CCN(S(C)(=O)=O)CC3)cnc2Nc2cc(F)cc3[nH]ncc23)n1` [Example 245, N-(3-(4-Amino-6-Methyl-1,3,5-Triazin-2-yl)-5-((4-(Methylsulfonyl)Piperazin-1-yl)Methyl)Pyridin-2-yl)-6-Fluoro-1H-Indazol-4-Amine]: 7.72.
As for `COc1ncc(Nc2ncc(C(C)(C)N3CCN(S(C)(=O)=O)CC3)cc2-c2nc(C)nc(N)n2)cc1F` [Example 280, 4-(2-(5-Fluoro-6-Methoxypyridin-3-Ylamino)-5-(2-(4-(Methylsulfonyl)Piperazin-1-yl)Propan-2-yl)Pyridin-3-yl)-6-Methyl-1,3,5-Triazin-2-Amine], the pIC50 is 7.85.
`COc1ncc(Nc2ncc(C(N3CCN(S(C)(=O)=O)CC3)C(F)(F)F)cc2-c2nc(C)nc(N)n2)cc1F` (stereo not drawn) [Example 325, 4-(2-(5-Fluoro-6-Methoxypyridin-3-Ylamino)-5-(2,2,2-Trifluoro-1-(4-(Methylsulfonyl)Piperazin-1-yl)Ethyl)Pyridin-3-yl)-6-Methyl-1,3,5-Triazin-2-Amine]: the pIC50 is 7.59.
On the same count and under the same terms, the same measure for `Cc1nc(N)nc(-c2cc(C3CCOCC3)cnc2Nc2cnc(Cl)c(NS(C)(=O)=O)c2)n1` [Example 328, N-(5-(3-(4-Amino-6-Methyl-1,3,5-Triazin-2-yl)-5-(Tetrahydro-2H-Pyran-4-yl)Pyridin-2-Ylamino)-2-Chloropyridin-3-yl)Methanesulfonamide]: 9.00; for `COc1ncc(Nc2ncc(C3=CCOCC3)cc2-c2nc(C)nc(N)n2)cc1F` [Example 343, 4-(5-(3,6-Dihydro-2H-Pyran-4-yl)-2-(5-Fluoro-6-Methoxypyridin-3-Ylamino)Pyridin-3-yl)-6-Methyl-1,3,5-Triazin-2-Amine]: 7.82; for `Cc1nc(N)nc(-c2cc(C(C)(C)O)cnc2Nc2cncc(S(C)(=O)=O)c2)n1` [Example 355, 2-(5-(4-Amino-6-Methyl-1,3,5-Triazin-2-yl)-6-(5-(Methylsulfonyl)Pyridin-3-Ylamino)Pyridin-3-yl)Propan-2-ol]: 5.94.
For the compound `COc1ncc(Nc2ncc([C@@H](C)N3CCN(S(C)(=O)=O)C[C@H]3C)cc2-c2nc(C)nc(N)n2)cc1F` [Example 360, 4-(2-(5-Fluoro-6-Methoxypyridin-3-Ylamino)-5-((R)-1-((R)-2-Methyl-4-(Methylsulfonyl)Piperazin-1-yl)Ethyl)Pyridin-3-yl)-6-Methyl-1,3,5-Triazin-2-Amine], the pIC50 was 7.92.
